In ChEMBL document CHEMBL5291721, “A preclinical secondary pharmacology resource illuminates target-adverse drug reaction associations of marketed drugs” (Nat Commun, 2023) one finds AC50 data, which are given here for 33 compounds.

Assay [1] addresses Voltage-dependent N-type calcium channel subunit alpha-1B (Rattus norvegicus, UniProt Q02294). The class given is functional.
The target of assay [2] is T1, Alpha-2A adrenergic receptor (Homo sapiens, UniProt P08913).
T1 sequence (P08913 whole entry): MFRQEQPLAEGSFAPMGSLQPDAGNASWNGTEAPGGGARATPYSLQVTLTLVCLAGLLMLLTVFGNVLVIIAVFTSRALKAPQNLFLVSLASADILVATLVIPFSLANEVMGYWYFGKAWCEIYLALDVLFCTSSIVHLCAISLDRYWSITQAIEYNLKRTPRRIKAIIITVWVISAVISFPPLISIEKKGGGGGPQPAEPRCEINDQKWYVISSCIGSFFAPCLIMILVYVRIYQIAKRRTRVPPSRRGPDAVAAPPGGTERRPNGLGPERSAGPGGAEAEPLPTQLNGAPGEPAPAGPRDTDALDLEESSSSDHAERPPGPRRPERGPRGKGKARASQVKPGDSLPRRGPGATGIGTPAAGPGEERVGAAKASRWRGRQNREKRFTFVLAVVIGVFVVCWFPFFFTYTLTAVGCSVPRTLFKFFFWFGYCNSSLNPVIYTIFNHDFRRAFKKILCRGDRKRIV

Assay [3] addresses T2, Muscarinic acetylcholine receptor M2 (Homo sapiens, UniProt P08172).
T2 sequence (P08172 whole entry): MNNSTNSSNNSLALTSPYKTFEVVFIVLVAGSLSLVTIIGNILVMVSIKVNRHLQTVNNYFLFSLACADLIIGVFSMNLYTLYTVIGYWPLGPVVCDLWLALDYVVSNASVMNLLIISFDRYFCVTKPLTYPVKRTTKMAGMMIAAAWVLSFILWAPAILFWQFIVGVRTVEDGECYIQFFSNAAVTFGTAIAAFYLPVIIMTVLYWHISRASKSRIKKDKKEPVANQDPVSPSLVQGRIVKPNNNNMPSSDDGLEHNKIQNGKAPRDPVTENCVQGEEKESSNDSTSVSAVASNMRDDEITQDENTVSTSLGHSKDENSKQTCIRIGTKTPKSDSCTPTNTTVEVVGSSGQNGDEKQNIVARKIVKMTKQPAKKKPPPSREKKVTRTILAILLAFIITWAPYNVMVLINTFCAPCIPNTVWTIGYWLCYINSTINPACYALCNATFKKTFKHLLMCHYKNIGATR

A further assay deals with T3, Adenosine receptor A1 (Homo sapiens, UniProt P30542).
T3 sequence (P30542 whole entry): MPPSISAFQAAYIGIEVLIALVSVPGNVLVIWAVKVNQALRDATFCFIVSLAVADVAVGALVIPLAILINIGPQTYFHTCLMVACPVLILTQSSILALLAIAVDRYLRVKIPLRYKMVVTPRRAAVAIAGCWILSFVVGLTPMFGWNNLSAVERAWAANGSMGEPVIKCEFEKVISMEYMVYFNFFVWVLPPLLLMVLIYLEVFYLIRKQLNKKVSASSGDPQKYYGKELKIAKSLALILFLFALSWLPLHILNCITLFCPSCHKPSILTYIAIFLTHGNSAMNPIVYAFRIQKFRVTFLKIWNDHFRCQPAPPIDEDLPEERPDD

The next assay deals with Histamine H1 receptor (Homo sapiens, UniProt P35367). The class given is functional, cell-based.
Sequence of Histamine H1 receptor (P35367 whole entry): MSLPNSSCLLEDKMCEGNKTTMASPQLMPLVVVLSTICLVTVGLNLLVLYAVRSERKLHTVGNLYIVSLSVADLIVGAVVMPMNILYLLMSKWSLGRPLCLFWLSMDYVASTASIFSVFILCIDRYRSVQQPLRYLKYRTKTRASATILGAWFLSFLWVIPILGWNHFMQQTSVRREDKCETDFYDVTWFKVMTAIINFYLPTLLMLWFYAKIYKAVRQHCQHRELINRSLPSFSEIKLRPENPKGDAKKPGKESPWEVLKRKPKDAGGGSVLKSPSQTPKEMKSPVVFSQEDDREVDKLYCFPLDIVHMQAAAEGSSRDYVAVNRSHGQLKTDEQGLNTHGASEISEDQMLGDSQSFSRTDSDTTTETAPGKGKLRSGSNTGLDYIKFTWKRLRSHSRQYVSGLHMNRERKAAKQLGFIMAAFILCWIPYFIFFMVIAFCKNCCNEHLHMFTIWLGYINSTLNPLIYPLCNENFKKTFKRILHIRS
A further assay concerns the target T4, Androgen receptor (Rattus norvegicus, UniProt P15207).
T4 sequence (P15207 whole entry): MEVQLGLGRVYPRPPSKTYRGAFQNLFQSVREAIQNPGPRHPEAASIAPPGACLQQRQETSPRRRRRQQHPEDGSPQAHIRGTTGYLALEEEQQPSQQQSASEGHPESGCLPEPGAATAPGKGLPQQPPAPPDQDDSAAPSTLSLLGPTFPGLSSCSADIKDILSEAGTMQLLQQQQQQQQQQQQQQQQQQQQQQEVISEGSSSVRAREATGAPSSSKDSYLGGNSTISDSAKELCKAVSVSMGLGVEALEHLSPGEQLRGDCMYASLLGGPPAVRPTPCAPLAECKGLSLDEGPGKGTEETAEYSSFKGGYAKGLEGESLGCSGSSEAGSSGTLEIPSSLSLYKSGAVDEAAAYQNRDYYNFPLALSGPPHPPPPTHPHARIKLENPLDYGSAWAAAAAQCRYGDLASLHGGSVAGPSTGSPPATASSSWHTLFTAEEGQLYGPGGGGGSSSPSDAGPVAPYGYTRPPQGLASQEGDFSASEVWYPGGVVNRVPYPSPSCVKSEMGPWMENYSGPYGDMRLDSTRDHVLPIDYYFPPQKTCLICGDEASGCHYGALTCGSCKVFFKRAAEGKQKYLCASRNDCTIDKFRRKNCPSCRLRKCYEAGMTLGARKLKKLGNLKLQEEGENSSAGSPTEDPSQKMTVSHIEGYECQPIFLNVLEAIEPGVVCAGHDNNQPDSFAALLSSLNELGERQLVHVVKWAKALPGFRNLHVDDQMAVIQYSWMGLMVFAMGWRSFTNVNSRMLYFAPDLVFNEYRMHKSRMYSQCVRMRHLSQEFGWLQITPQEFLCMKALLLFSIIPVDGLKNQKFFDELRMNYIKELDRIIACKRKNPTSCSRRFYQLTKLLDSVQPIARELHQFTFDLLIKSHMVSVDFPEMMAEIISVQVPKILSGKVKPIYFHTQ
The class given is functional.

Assay [4] concerns the target T5, Peroxisome proliferator-activated receptor gamma (Homo sapiens, UniProt P37231).
T5 sequence (P37231 whole entry): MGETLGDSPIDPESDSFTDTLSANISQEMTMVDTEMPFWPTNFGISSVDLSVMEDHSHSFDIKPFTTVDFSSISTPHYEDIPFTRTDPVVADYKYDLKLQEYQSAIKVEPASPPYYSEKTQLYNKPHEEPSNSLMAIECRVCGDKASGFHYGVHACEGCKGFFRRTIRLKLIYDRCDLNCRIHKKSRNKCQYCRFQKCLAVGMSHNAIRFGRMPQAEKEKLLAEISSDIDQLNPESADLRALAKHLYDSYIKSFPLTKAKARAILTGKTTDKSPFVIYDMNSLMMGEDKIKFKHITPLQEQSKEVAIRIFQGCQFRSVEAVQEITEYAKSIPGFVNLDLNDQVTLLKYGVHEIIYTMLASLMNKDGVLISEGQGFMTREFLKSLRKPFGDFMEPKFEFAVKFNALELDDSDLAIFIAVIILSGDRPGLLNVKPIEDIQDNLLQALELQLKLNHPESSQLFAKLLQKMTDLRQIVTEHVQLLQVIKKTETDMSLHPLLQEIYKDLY
The class given is functional.

Assay [5] has as its target T5, Peroxisome proliferator-activated receptor gamma. The class given is functional. The source holds these as a separate data set.
In assay [6] the target is Gamma-aminobutyric acid receptor subunit alpha-1/alpha-2/beta-2/gamma-2 (Homo sapiens, UniProt P14867+P18507+P47869+P47870). The class given is functional, cell-based.
Sequence of Gamma-aminobutyric acid receptor subunit alpha-1/alpha-2/beta-2/gamma-2 (P14867 whole entry): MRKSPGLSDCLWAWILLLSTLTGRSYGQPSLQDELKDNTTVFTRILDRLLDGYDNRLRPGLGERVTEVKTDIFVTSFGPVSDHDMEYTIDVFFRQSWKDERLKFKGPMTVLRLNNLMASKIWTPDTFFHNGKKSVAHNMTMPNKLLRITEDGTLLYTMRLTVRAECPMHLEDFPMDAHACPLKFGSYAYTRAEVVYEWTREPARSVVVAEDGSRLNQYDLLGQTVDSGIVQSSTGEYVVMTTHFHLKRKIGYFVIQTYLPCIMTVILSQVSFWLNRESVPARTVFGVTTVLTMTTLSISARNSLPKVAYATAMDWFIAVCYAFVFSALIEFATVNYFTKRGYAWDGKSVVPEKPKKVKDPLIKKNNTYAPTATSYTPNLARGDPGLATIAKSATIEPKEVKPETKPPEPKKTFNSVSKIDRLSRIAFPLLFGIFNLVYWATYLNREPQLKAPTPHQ
Sequence of Gamma-aminobutyric acid receptor subunit alpha-1/alpha-2/beta-2/gamma-2 (P47870 whole entry): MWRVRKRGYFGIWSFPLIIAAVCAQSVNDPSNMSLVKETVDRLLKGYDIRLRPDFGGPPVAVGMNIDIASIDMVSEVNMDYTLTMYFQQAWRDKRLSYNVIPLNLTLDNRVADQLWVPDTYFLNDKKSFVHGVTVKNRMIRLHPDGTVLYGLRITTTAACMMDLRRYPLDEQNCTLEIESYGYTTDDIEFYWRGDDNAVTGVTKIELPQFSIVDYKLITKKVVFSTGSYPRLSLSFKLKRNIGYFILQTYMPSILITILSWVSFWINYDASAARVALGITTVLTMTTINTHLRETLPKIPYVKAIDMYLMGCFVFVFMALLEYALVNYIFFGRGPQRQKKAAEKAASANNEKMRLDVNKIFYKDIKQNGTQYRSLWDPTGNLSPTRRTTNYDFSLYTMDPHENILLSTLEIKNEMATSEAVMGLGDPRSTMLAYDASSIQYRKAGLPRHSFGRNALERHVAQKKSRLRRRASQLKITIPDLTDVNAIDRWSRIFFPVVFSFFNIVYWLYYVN
Sequence of Gamma-aminobutyric acid receptor subunit alpha-1/alpha-2/beta-2/gamma-2 (P18507 whole entry): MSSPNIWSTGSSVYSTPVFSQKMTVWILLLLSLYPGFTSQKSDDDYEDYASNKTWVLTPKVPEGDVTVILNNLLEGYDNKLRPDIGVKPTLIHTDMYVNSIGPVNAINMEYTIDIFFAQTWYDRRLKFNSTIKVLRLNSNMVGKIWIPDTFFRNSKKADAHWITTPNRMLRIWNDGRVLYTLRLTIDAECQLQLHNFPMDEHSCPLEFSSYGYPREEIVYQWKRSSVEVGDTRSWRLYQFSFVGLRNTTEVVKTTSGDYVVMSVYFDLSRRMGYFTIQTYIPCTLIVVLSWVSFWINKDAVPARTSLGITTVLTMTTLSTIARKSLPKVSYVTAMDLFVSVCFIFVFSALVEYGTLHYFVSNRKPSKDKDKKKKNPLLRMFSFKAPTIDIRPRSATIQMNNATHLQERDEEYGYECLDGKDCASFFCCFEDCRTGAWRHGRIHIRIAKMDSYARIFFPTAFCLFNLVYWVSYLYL
Sequence of Gamma-aminobutyric acid receptor subunit alpha-1/alpha-2/beta-2/gamma-2 (P47869 whole entry): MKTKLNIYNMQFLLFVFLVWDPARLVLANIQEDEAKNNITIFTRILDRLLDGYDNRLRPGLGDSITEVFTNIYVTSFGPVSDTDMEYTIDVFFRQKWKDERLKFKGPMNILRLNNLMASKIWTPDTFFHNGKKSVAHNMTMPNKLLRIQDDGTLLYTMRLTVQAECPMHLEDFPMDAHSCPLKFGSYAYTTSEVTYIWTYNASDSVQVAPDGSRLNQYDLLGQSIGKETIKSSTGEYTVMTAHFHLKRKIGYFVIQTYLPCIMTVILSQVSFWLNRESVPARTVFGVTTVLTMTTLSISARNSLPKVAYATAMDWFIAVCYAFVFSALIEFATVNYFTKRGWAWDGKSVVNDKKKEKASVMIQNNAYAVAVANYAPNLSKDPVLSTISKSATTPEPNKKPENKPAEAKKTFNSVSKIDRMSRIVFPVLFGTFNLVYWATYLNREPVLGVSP

SMILES strings stand for the structures. Bounds are passed on as bounds.

What is called AC50 is the midpoint of the concentration-response curve, whichever way the signal moves.
Note: assay procedure not described here.

Sequence of Voltage-dependent N-type calcium channel subunit alpha-1B (Q02294 whole entry): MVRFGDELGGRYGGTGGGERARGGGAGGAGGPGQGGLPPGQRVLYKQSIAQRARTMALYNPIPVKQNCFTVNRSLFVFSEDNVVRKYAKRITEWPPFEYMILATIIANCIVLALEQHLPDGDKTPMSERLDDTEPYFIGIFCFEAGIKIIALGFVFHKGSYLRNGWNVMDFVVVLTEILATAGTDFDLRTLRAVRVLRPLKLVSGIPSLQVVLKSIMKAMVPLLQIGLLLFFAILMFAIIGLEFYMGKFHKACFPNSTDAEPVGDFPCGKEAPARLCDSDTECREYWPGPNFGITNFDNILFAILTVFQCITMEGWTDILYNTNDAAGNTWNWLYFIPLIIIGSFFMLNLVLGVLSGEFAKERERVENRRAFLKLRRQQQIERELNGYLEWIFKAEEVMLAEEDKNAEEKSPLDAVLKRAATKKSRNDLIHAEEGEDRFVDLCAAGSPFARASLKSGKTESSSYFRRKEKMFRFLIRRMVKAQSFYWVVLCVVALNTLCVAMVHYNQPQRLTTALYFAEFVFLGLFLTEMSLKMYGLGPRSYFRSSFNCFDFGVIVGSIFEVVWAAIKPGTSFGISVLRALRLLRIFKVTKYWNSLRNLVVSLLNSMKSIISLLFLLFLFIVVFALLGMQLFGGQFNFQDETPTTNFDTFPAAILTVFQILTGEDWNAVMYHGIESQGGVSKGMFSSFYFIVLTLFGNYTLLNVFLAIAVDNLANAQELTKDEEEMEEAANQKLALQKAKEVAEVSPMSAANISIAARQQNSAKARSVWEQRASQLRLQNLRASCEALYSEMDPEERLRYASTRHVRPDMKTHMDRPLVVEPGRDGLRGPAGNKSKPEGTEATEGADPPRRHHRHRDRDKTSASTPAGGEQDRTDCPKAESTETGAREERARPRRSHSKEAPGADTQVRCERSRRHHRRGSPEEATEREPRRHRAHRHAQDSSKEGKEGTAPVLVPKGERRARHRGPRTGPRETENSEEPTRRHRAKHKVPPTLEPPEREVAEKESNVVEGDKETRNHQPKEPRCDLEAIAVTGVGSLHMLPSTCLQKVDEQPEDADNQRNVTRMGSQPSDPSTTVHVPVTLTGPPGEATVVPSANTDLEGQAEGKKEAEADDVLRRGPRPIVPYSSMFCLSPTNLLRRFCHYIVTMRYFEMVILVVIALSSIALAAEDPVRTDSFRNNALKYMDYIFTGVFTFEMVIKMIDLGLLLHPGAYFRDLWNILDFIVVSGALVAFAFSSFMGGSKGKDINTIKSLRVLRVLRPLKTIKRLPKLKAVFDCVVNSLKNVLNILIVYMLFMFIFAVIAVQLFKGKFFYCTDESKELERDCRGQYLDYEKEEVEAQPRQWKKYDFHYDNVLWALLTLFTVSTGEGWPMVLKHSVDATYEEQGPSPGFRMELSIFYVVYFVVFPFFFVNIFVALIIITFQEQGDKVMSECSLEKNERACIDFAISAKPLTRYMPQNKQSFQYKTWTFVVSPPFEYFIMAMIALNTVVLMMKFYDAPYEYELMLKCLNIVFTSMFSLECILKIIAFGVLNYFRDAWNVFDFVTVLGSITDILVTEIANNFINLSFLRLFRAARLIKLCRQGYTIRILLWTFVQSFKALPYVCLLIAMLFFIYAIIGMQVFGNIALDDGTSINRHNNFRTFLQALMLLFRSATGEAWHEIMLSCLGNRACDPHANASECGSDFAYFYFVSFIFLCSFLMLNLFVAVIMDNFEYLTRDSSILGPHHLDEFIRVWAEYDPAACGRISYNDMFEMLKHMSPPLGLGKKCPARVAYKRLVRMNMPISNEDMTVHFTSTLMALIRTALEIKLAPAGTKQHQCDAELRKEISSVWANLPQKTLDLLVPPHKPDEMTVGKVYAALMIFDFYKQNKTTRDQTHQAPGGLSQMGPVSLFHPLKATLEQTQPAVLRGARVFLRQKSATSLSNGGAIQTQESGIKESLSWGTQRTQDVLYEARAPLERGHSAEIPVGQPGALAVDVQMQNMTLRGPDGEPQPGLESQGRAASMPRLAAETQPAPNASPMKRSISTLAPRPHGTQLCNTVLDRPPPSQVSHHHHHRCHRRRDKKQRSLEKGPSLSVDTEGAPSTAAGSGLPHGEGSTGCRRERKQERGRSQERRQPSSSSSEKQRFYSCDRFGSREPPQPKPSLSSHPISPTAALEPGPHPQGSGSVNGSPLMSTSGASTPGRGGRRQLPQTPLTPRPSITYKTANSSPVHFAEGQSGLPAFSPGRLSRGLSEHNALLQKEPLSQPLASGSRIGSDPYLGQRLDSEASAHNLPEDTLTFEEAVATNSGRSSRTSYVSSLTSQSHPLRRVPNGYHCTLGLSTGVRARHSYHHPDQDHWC

As to `CCC[C@H](NC(=O)[C@@H]1[C@H]2CCC[C@H]2CN1C(=O)[C@@H](NC(=O)[C@@H](NC(=O)c1cnccn1)C1CCCCC1)C(C)(C)C)C(=O)C(=O)NC1CC1`, the AC50 in assay [1], in assay [2] and in assay [3] was over 10 µM throughout.

At Adenosine receptor A1, `CCOC(=O)[C@H](CCc1ccccc1)N[C@@H](C)C(=O)N(CC(=O)O)C1Cc2ccccc2C1` had an AC50 of over 30 µM.

Regarding `CC(=O)N[C@@H](CS)C(=O)O` [ACETYLCYSTEINE], on Histamine H1 receptor, the concentration at half-maximal activity (AC50) is over 30 µM.

In the case of `C=CCNc1nc(NCC=C)nc(N2CCN(C(c3ccc(F)cc3)c3ccc(F)cc3)CC2)n1` [ALMITRINE], at Androgen receptor, the AC50 is over 30 µM.

On to `CN1CCC(=C2c3ccccc3CCc3cccnc32)CC1` [AZATADINE], for which the AC50 at Histamine H1 receptor was over 30 µM; in assay [2], over 10 µM; in assay [3], 0.064 µM.

Consider `CC(C)COCC(CN(Cc1ccccc1)c1ccccc1)N1CCCC1` (stereo not drawn) [BEPRIDIL], for which the AC50 in [4] and in assay [5] was over 30 µM in each case.

In the case of `C/N=C(\NC)NCc1ccccc1` [BETHANIDINE], the AC50 in assay [6], in assay [4] and in [5] was over 30 µM in each case.

On to `CCC(C)C1(CC)C(=O)NC(=O)NC1=O` (stereo not drawn) [BUTABARBITAL], for which the AC50 (at Androgen receptor; in assay [4]; in [5]) was over 30 µM throughout.

`COCC1=C(C(=O)O)N2C(=O)[C@@H](NC(=O)/C(=N\OC)c3csc(N)n3)[C@H]2SC1` [CEFPODOXIME] gave an AC50 on Androgen receptor of over 30 µM.

For `CNC1=Nc2ccc(Cl)cc2C(c2ccccc2)=[N+]([O-])C1` [CHLORDIAZEPOXIDE], the half-maximal activity concentration (AC50) in assay [2] is over 10 µM.

As to `CC(=O)O[C@]1(C(C)=O)CC[C@H]2[C@@H]3C=C(Cl)C4=CC(=O)CC[C@]4(C)[C@H]3CC[C@@]21C` [CHLORMADINONE ACETATE], the concentration at half-maximal activity (AC50) at Adenosine receptor A1 was over 30 µM.

For `O=C(O)c1cn(C2CC2)c2cc(N3CCNCC3)c(F)cc2c1=O` [CIPROFLOXACIN], the concentration at half-maximal activity (AC50) at Adenosine receptor A1 is over 30 µM.

On to `CCN(CC)C(=S)S` [DITIOCARB], for which the AC50 on Adenosine receptor A1 was over 30 µM.

For `CC(CCc1ccc(O)cc1)NCCc1ccc(O)c(O)c1` (stereo not drawn) [DOBUTAMINE], the AC50 was over 10 µM in [1], 10.8 µM in [2] and over 10 µM in [3].

`C=C1CC[C@H](O)C/C1=C/C=C1\CCC[C@]2(C)[C@@H]([C@H](C)/C=C/[C@H](C)C(C)C)CC[C@@H]12` [ERGOCALCIFEROL]: the AC50 at Adenosine receptor A1 is over 30 µM.

For `CCC(=O)O[C@]1(C(=O)SCF)[C@H](C)C[C@H]2[C@@H]3C[C@H](F)C4=CC(=O)C=C[C@]4(C)[C@@]3(F)[C@@H](O)C[C@@]21C` [FLUTICASONE PROPIONATE], the AC50 in assay [1], in [2] and in assay [3] was over 10 µM in each case.

For the compound `Cc1cnc(C(=O)NCCc2ccc(S(=O)(=O)NC(=O)NC3CCCCC3)cc2)cn1` [GLIPIZIDE], the results for the AC50 (at Adenosine receptor A1; in assay [1]; in assay [2]) were over 30 µM, over 10 µM and over 10 µM, respectively.

As for `CC(C)NCC(O)c1ccc(O)c(O)c1` (stereo not drawn) [ISOPROTERENOL], the AC50 in [1] and in assay [3] was over 10 µM throughout.

Regarding `Oc1ccc2c(c1)CC[C@H](c1ccccc1)[C@@H]2c1ccc(OCCN2CCCC2)cc1` [LASOFOXIFENE], the half-maximal activity concentration (AC50) at Androgen receptor was 23 µM; in [6] it was over 30 µM; in [4], over 30 µM; in [5] it was 18 µM.

As to `CN1CCN(C2=Nc3ccccc3Oc3ccc(Cl)cc32)CC1` [LOXAPINE], the AC50 in assay [1] is over 10 µM.

For the compound `C[C@H](Cc1ccc(O)c(O)c1)[C@@H](C)Cc1ccc(O)c(O)c1` [MASOPROCOL], the half-maximal activity concentration (AC50) at Histamine H1 receptor was over 30 µM; in assay [4], over 30 µM; in [5], 0.4 µM.

For `OC1(c2ccc(Cl)cc2)c2ccccc2C2=NCCN21` (stereo not drawn) [MAZINDOL], the concentration at half-maximal activity (AC50) at Androgen receptor was over 30 µM; in assay [1], over 10 µM; in assay [2] it was over 10 µM; in assay [3], over 10 µM.

Take `CC12CC3CC(C)(C1)CC(N)(C3)C2` [MEMANTINE]: the results for the half-maximal activity concentration (AC50) (in assay [1]; on Histamine H1 receptor) were over 10 µM and over 30 µM, respectively.

In the case of `CN(C)CCCNc1c2ccccc2nc2cccc([N+](=O)[O-])c12` [NITRACRINE], on Androgen receptor, the AC50 is over 30 µM.

`CCOC(=O)C1=C(C)NC(C)=C(C(=O)OC)C1c1cccc([N+](=O)[O-])c1` (stereo not drawn) [NITRENDIPINE]: the half-maximal activity concentration (AC50) in [1], in [2] and in assay [3] was over 10 µM in each case.

In the case of `O=[N+]([O-])c1ccc(O)c2ncccc12` [NITROXOLINE], the AC50 (at Adenosine receptor A1; in assay [6]) was over 30 µM throughout.

Regarding `[H]/N=C(/N)N/C(=N/[H])NCCc1ccccc1` [PHENFORMIN], the concentration at half-maximal activity (AC50) in [1] is over 10 µM; in [2], 6.71 µM; in assay [3] it was over 10 µM.

With `CC(N)C(O)c1ccccc1` (stereo not drawn) [PHENYLPROPANOLAMINE], the AC50 in assay [1], in assay [2] and in assay [3] was over 10 µM each time.

For the compound `Clc1ccc2c(N3CCN(CCCN4CCN(c5ccnc6cc(Cl)ccc56)CC4)CC3)ccnc2c1` [PIPERAQUINE], the half-maximal activity concentration (AC50) at Androgen receptor was over 30 µM.

Consider `CC[C@@H]([C@H](C)O)n1ncn(-c2ccc(N3CCN(c4ccc(OC[C@@H]5CO[C@@](Cn6cncn6)(c6ccc(F)cc6F)C5)cc4)CC3)cc2)c1=O` [POSACONAZOLE], for which the AC50 on Adenosine receptor A1 was over 30 µM.

Take `Cc1cccc(N2CC(CO)OC2=O)c1` (stereo not drawn) [TOLOXATONE]: on Androgen receptor, the AC50 was over 30 µM.

Take `CCC(C)C(CC)C(N)=O` (stereo not drawn) [VALNOCTAMIDE]: the half-maximal activity concentration (AC50) (on Androgen receptor; in assay [6]; on Histamine H1 receptor) was over 30 µM in each case.

Take `Cc1cc(C(C)(C)C)cc(C)c1CC1=NCCN1` [XYLOMETAZOLINE]: the AC50 in assay [6] was over 30 µM; in assay [2], 0.03 µM.
